# Laboratory results taken from patent US20240034742A1, “DOSING REGIMENS FOR CYCLIN-DEPENDENT KINASE 7 (CDK7) INHIBITORS” (Syros Pharmaceuticals, Inc., priority 2020, published 2024).
# Columns and labels:
# [1] = tested on: 12 PDX models representing SCLC, TNBC and HGSOC; test: Tumor growth inhibition in TNBC, HGSOC and SCLC PDX models
# Protocol: (§1) In the TNBC, SCLC, and HGSOC models, tumor volume was measured during the treatment period and for an additional 21 days after treatment ceased. […] The same calculations were used for end of study (day 42).
# Dosing was initiated when tumors were 150-300 mm^3. […] TGI was calculated on the last day of dosing using the formula: TGI=(Vc1−Vt1)/(Vc0−Vt0), where Vc1 and Vt1 are the mean volumes of control and treated groups at the time of tumor extraction, while Vc0 and Vt0 are the same groups at the start of dosing.
# [2] = tested on: patients with advanced solid tumors; test: Phase 1, first-in-human dose escalation study
# Protocol: We focused on safety, tolerability, PK, and PD (as assessed by a PD gene expression marker, POLR2A mRNA) in a 28-day single agent continuous daily dosing regimen and a 3-week-on, I-week-off combination regimen with fulvestrant.
# Safety and tolerability, including cycle-1 dose-limiting toxicities (DLTs) were evaluated. Dose-limiting toxicities were graded using the National Cancer Institute Common Toxicity Criteria for Adverse Events (NCI-CTCAE) version 5.0. Serial plasma PK and PD in peripheral blood mononuclear cells (PBMCs) were obtained on days 1 and 15 in cycle 1. […] Tumor responses were assessed per RECIST version 1.1.
# [3] = tested on: PDX models with oncogenic alterations in the RB pathway and MAPK pathway; test: Anti-tumor activity in PDX models with RB or MAPK pathway alterations; format: in vivo; conditions: well-tolerated doses; models from SCLC, TNBC, HGSOC, CRC, PDAC, NSCLC patients
# [4] = tested on: HCC70 cell line; test: Inhibition of cell proliferation (CyQUANT Direct Cell Proliferation Assay); format: cell-based; conditions: Homo sapiens, 72-hour proliferation assay
# Protocol: The HCC70 cell line was derived from human TNBC, and we tested representative compounds of the invention, at different concentrations (from […]; 0.5 log serial dilutions), for their ability to inhibit the proliferation of those cells. More specifically, we tested the same compounds tested above for CDK7 selectivity (the structures of which are shown in FIG. 1), and we used the known CDK inhibitors dinaciclib (or N-((1S,3R)-3-((5-chloro-4-(1H-indol-3-yl) pyrimidin-2-yl)amino)cyclohexyl)-5-((E)-4-(dimethylamino)but-2-enamido)picolinamide) and triptolide as positive controls. The cells were grown in ATCC-formulated RPMI-1640 medium (ATCC 30-2001) supplemented with 10% fetal bovine serum (FBS), at 37° C. in a humidified chamber in the presence of 5% CO2. We conducted proliferation assays over a 72-hour time period using a CyQUANT® Direct Cell Proliferation Assay (Life Technologies, Chicago, IL USA) according to the manufacturer's directions and utilizing the reagents supplied with the kit.
# [5] = tested on: ST390 (modeling pancreatic ductal adenocarcinoma (PDAC)); test: Tumor growth inhibition in PDAC PDX model ST390; conditions: 6 mg/kg QD PO, over the time examined (~28 days)
# Protocol: as §1
# [6] = tested on: palbociclib and fulvestrant double-resistant ER+BC PDX model (ST941); test: Tumor growth inhibition in palbociclib and fulvestrant double-resistant ER+BC PDX model ST941; format: in vivo, mice; conditions: last day of 28 days dosing, Compound 101 6 mg/kg QD PO, fulvestrant 2.5 mg/kg weekly SC, palbociclib 50 mpk QD PO
# Protocol: Tumor growth inhibition was evaluated in estrogen receptor-positive breast cancer (ER-BC) PDX models selected in vivo for resistance to the CDK4/6 inhibitor palbociclib (ST1799, […]) or resistance to both palbociclib and fulvestrant (ST941, n=1), Dosing was initiated when tumors were 100-200 mm^3.
# [7] = single agent and in combination with fulvestrant
compound,measurement,setting,value
"CC1(C)CC[C@H](Nc2ncc(C(F)(F)F)c(-c3c[nH]c4c(P(C)(C)=O)c(C#N)ccc34)n2)CN1 [Compound 101, (S)-7-(dimethylphosphoryl)-3-(2-((6,6-dimethylpiperidin-3-yl)amino)-5-(trifluoromethyl)pyrimidin-4-yl)-1H-indole-6-carbonitrile]","TGI in TNBC (BR5010), SCLC (LU5178) and HGSOC (OV15398) PDX models","[1]; 10 mg/kg QD or 5 mg/kg BID (TNBC), 3 mg/kg BID (SCLC, HGSOC), PO, 21 days, plus 21 days observation","deep and sustained TGI, including regressions"
same,TGI at the end of the 21-day dosing period in all models,"[1]; 12 PDX models, 6 or 10 mg/kg QD or 3 or 5 mg/kg BID PO",at least 50%
same,"TGI in the subset of models (58%, 7/12) with deep and sustained responses","[1]; TGI or regression, no tumor regrowth for 21 days after treatment discontinuation",> 95%
same,tolerability: body weight,"[1]; all once-daily doses tested, tumor-bearing mice",no evident body weight loss
same,MTD,[1]; tumor-bearing mice,above 10 mg/kg once daily
same,pharmacodynamics: POLR2A mRNA in PBMCs and CDK7 occupancy,[2]; 3 mg daily,induced POLR2A elevations associated with regressions in preclinical models and target levels of CDK7 occupancy in patients
same,dose-limiting events,"[2]; cohort receiving 4 mg doses, continuous daily (Grade 3 fatigue; abdominal pain)",two
same,dose-limiting events,"[2]; cohort receiving 5 mg doses, continuous daily (Grade 3 nausea; thrombocytopenia)",two
same,patients who developed an SAE (all causality),[2]; four of 13 patients,31%
same,grade of the majority of reported adverse events,[2]; in vivo,low grade
same,accumulation with repeated dosing,[2]; [7],minimal accumulation
same,dose proportionality of PK,[2]; [7],approximately dose proportional PK
same,interpatient variability of PK,[2]; [7],moderate to high interpatient variability
same,steady state half-life,[2]; [7],compatible with once daily dosing
same,best response (RECIST 1.1),"[2]; single agent, 3 mg daily, two patients (HR+ breast cancer, colorectal cancer)",stable disease
same,best response (RECIST 1.1),"[2]; single agent, 5 mg daily, one patient, esophageal cancer",stable disease
same,MTD,"[2]; single agent, oral, continuous daily dosing cohorts",3 mg
same,response (RECIST 1.1),"[2]; single agent, two patients with ovarian cancer, 1 mg and 3 mg daily",progressive disease
same,anti-tumor activity,[3],robust anti-tumor activity
same,EC50,[4],3.6 nM
same,Tumor growth inhibition (TGI),[5],100%
C[C@]12CC[C@@H]3c4ccc(O)cc4C[C@@H](CCCCCCCCC[S+]([O-])CCCC(F)(F)C(F)(F)F)[C@H]3[C@@H]1CC[C@@H]2O (some centres unmarked) [fulvestrant],Tumor growth inhibition (TGI),[6],no activity
CC(=O)c1c(C)c2cnc(Nc3ccc(N4CCNCC4)cn3)nc2n(C2CCCC2)c1=O [palbociclib],Tumor growth inhibition (TGI),[6],no activity
